Test system: metastatic and/or recurrent breast cancer
Assay: Phase III clinical trial, survival of patients treated with DPPE/doxorubicin versus doxorubicin alone
Assay type: in vivo, human
Method: In the treatment of metastatic and/or recurrent breast cancer, the diphenyl compound preferably is used in an amount of about 3 to about 10 mg/kg of patient administered intravenously over a period of about 30 to about 90 minutes prior to administration of the chemotherapeutic agent(s) and continuing for the period of administration of the chemotherapy agent(s). In the specific Phase III clinical trial described herein, there was employed 5.3 mg/kg of DPPE in the form of the base (equivalent to 6 mg/kg of DPPE in the form of its hydrochloride), administered intravenously as an aqueous solution thereof over 80 minutes, with the last twenty minutes being accompanied by infusion of the specific chemotherapeutic agent.
The anthracycline chemotherapy agent active in breast cancer which is employed herein preferably is used in a total amount of about 50 to about 75 mg/M^2 of patient consistent with the identity of the anthracycline chemotherapy agent(s). In the specific Phase III clinical trial described herein, there was employed 60 mg/M^2 of doxorubicin administered over the last 20 minutes of infusion of the DPPE solution. […]
The survival time of patients was determined in relation to ER status for patients receiving the DPPE/DOX combination and DOX alone. […]
In addition, the survival times of patients was determined in relation to disease-free intervals for patients receiving the DPPE/DOX combination and DOX alone.
The survival times of patients was determined in relation to the number of cycles of treatment for patients receiving the DPPE/DOX combination and DOX alone.
The survival time for patients also was determined for those patients with metastatic breast cancer receiving no prior chemotherapy treatment in relation to those also had received prior chemotherapy treatment and for patients that had received no previous treatment type (i.e. no prior chemotherapy, radiotherapy and/or hormone treatment). The survival times were determined for patients receiving the DPPE/DOX combination and DOX alone.

Compound | median overall survival (patients with metastatic disease who had no previous chemotherapy, DPPE 5.3 mg/kg iv over 80 min, doxorubicin 60 mg/M^2 over last 20 min) [months] | median overall survival (patients with metastatic disease who had no previous treatment (chemotherapy, radiotherapy and/or hormone treatment)) [months] | increase in overall survival compared to the control group (patients with aggressive breast cancer, pretreatment with DPPE before doxorubicin)
COc1cccc2c1C(=O)c1c(O)c3c(c(O)c1C2=O)C[C@@](O)(C(=O)CO)C[C@@H]3O[C@H]1C[C@H](N)[C@H](O)[C@H](C)O1 [DOX, doxorubicin] | 16.2 | 15 | –
CCN(CC)CCOc1ccc(Cc2ccccc2)cc1 [DPPE, N,N-diethyl-2-[4-(phenylmethyl)-phenoxy]ethanamine] | – | – | about 50%

Reference: patent publication US20050119263A1, “Treatment of breast cancer” (priority 2001, published 2005)
